# In the kinase profiling compilation of Christmann-Franck et al. (2016):
# What was measured:
# Assay in all cases: radiometric filter-binding kinase assay, Kinase HotSpot
# Conditions in all cases: compound 0.5 µM; ATP 10 µM
# ACVR1B (human) = ACVR1B (human) (UniProt P36896)
# ADRBK1 (human) = ADRBK1 (human) (UniProt P25098)
# BRSK1 (human) = BRSK1 (human) (UniProt Q8TDC3)
# CAMK1 (human) = CAMK1 (human) (UniProt Q14012)
# CAMKK2 (human) = CAMKK2 (human) (UniProt Q96RR4)
# CDK1 CCNA2 (human) = CDK1 CCNA2 (human) (UniProt P06493+P20248)
# CDK5 CDK5R1 p25 (human) = CDK5 CDK5R1 p25 (human) (UniProt Q00535+Q15078)
# CLK1 (human) = CLK1 (human) (UniProt P49759)
# CSNK1E (human) = CSNK1E (human) (UniProt P49674)
# DDR2 (human) = DDR2 (human) (UniProt Q16832)
# DMPK (human) = DMPK (human) (UniProt Q09013)
# DYRK1A (human) = DYRK1A (human) (UniProt Q13627)
# DYRK3 (human) = DYRK3 (human) (UniProt O43781)
# ERBB2 (human) = ERBB2 (human) (UniProt P04626)
# FGFR1 (human) = FGFR1 (human) (UniProt P11362)
# FRK (human) = FRK (human) (UniProt P42685)
# GSK3A (human) = GSK3A (human) (UniProt P49840)
# INSRR (human) = INSRR (human) (UniProt P14616)
# KDR (human) = KDR (human) (UniProt P35968)
# LIMK1 (human) = LIMK1 (human) (UniProt P53667)
# MAP3K2 (human) = MAP3K2 (human) (UniProt Q9Y2U5)
# MAPK13 (human) = MAPK13 (human) (UniProt O15264)
# MKNK2 (human) = MKNK2 (human) (UniProt Q9HBH9)
# MYLK2 (human) = MYLK2 (human) (UniProt Q9H1R3)
# NEK1 (human) = NEK1 (human) (UniProt Q96PY6)
# NEK7 (human) = NEK7 (human) (UniProt Q8TDX7)
# PAK1 (human) = PAK1 (human) (UniProt Q13153)
# PAK7 (human) = PAK7 (human) (UniProt Q9P286)
# PHKG1 (human) = PHKG1 (human) (UniProt Q16816)
# PHKG2 (human) = PHKG2 (human) (UniProt P15735)
# PKN2 (human) = PKN2 (human) (UniProt Q16513)
# PRKACA (human) = PRKACA (human) (UniProt P17612)
# PRKCB2 (human) = PRKCB2 (human) (UniProt P05771)
# PRKCE (human) = PRKCE (human) (UniProt Q02156)
# PRKCH (human) = PRKCH (human) (UniProt P24723)
# PTK2 (human) = PTK2 (human) (UniProt Q05397)
# PTK6 (human) = PTK6 (human) (UniProt Q13882)
# RPS6KA2 KD1 KD2 (human) = RPS6KA2 KD1 KD2 (human) (UniProt Q15349)
# RPS6KA6 KD1 KD2 (human) = RPS6KA6 KD1 KD2 (human) (UniProt Q9UK32)
# SRPK1 (human) = SRPK1 (human) (UniProt Q96SB4)
# STK11 (human) = STK11 (human) (UniProt Q15831)
# STK17A (human) = STK17A (human) (UniProt Q9UEE5)
# CAMK1 (human), sequence (Q14012 whole entry, looked up): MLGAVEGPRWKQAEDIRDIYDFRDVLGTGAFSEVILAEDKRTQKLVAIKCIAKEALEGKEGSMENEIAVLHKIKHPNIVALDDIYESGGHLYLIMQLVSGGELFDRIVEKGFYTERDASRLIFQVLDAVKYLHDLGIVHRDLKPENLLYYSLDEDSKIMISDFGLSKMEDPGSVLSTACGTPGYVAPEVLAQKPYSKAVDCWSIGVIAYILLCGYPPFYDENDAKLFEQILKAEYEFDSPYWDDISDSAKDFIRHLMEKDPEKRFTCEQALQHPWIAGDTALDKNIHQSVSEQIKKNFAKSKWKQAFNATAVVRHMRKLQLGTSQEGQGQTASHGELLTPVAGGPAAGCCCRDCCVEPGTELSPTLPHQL
# FRK (human), sequence (P42685 whole entry, looked up): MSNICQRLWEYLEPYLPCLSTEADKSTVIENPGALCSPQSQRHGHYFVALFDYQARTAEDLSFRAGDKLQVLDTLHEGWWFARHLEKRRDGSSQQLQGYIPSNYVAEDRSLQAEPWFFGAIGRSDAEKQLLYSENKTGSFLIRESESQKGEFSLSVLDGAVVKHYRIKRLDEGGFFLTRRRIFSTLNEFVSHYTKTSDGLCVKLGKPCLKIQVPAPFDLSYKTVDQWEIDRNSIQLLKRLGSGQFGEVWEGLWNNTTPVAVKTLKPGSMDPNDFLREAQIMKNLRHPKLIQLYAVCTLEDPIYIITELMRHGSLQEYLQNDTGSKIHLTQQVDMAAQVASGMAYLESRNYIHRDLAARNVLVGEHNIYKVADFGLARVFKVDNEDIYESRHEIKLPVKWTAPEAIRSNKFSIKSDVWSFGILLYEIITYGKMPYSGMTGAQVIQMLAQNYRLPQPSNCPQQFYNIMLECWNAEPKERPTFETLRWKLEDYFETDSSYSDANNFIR
# ADRBK1 (human), sequence (P25098 whole entry, looked up): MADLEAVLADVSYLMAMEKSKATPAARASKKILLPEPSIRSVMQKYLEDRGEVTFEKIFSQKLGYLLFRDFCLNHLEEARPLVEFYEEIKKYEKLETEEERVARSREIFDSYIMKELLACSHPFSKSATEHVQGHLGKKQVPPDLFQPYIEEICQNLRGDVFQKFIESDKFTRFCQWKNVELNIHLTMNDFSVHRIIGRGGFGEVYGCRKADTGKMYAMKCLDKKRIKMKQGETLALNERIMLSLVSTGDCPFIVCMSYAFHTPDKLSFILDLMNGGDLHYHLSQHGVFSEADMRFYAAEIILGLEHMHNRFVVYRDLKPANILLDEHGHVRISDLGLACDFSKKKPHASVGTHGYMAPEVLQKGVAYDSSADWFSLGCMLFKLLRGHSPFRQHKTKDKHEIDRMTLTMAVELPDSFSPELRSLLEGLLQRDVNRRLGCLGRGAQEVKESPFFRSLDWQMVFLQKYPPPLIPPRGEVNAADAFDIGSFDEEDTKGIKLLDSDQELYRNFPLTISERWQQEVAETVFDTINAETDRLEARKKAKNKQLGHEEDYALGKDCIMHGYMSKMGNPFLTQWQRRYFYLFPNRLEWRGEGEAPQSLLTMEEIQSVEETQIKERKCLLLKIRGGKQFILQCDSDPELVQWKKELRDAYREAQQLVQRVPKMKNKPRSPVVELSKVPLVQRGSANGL
# ACVR1B (human), sequence (P36896 whole entry, looked up): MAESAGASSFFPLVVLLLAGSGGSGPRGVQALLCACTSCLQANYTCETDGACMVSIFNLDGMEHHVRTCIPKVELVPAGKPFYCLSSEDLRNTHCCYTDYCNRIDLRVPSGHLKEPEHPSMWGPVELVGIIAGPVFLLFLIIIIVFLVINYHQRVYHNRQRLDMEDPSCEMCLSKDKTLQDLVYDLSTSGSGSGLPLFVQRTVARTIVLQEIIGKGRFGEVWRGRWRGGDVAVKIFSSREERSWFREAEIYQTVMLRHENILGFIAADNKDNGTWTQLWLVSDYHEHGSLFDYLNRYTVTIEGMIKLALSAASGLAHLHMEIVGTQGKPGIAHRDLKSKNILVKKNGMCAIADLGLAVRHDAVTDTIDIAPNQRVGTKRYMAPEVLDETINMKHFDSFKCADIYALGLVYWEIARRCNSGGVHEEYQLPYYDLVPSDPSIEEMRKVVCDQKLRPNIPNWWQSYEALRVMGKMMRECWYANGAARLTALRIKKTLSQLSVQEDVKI
# ERBB2 (human), sequence (P04626 whole entry, looked up): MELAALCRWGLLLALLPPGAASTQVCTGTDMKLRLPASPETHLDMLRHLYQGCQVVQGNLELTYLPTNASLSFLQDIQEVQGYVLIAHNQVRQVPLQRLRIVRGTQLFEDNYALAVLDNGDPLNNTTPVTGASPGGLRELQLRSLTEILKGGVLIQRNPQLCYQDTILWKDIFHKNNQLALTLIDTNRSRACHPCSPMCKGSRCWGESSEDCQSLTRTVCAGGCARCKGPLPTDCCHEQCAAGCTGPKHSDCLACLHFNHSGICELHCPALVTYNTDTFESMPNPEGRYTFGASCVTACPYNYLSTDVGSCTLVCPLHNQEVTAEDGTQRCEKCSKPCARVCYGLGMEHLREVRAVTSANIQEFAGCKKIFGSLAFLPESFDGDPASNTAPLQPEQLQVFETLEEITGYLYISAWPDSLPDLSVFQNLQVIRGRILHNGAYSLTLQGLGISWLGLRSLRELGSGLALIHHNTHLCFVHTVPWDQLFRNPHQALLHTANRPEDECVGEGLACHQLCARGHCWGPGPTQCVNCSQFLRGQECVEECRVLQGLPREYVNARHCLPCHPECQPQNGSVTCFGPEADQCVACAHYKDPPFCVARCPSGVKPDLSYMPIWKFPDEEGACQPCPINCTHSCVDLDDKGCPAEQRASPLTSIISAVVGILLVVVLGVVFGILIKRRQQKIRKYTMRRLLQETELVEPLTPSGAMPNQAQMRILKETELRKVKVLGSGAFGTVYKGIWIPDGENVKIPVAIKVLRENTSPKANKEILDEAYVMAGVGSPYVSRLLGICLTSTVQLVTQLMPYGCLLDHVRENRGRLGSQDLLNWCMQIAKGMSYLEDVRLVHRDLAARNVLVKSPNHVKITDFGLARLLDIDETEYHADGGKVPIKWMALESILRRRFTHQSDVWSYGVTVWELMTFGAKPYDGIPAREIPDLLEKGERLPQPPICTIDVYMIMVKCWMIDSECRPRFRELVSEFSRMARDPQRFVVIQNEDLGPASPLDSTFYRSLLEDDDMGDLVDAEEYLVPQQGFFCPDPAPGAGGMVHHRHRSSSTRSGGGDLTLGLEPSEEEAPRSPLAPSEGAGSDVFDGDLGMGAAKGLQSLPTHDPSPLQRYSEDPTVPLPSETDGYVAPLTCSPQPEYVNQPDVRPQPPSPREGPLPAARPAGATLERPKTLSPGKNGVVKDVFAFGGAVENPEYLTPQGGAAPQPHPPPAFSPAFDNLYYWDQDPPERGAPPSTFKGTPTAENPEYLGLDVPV
# MKNK2 (human), sequence (Q9HBH9 whole entry, looked up): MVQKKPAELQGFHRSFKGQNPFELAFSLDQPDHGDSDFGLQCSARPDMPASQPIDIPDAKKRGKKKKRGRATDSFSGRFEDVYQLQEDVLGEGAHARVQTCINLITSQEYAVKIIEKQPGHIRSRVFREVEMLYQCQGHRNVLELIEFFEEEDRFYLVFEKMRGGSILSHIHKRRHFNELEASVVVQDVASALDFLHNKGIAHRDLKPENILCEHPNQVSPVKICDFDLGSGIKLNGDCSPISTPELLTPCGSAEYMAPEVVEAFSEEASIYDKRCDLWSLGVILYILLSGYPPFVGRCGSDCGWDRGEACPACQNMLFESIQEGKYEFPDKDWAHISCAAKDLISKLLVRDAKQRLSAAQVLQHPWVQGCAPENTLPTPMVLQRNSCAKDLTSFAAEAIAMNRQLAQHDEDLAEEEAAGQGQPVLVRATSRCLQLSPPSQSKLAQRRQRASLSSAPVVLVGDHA
# SRPK1 (human), sequence (Q96SB4 whole entry, looked up): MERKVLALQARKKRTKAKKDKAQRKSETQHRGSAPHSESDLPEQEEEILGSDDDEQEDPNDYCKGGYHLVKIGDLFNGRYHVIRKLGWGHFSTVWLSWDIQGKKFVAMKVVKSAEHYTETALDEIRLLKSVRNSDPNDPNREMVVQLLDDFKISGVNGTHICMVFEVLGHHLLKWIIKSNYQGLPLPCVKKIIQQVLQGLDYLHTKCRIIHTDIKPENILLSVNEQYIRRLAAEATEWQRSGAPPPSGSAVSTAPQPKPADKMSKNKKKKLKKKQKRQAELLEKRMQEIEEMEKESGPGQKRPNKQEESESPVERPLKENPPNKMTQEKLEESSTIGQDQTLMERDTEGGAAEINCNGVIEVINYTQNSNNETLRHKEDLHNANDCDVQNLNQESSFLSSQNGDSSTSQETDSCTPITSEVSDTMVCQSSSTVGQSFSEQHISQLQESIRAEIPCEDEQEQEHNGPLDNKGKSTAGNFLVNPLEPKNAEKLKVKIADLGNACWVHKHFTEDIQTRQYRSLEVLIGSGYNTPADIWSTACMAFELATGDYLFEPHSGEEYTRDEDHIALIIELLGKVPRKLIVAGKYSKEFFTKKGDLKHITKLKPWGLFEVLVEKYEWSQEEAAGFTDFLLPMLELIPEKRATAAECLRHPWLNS
# PTK6 (human), sequence (Q13882 whole entry, looked up): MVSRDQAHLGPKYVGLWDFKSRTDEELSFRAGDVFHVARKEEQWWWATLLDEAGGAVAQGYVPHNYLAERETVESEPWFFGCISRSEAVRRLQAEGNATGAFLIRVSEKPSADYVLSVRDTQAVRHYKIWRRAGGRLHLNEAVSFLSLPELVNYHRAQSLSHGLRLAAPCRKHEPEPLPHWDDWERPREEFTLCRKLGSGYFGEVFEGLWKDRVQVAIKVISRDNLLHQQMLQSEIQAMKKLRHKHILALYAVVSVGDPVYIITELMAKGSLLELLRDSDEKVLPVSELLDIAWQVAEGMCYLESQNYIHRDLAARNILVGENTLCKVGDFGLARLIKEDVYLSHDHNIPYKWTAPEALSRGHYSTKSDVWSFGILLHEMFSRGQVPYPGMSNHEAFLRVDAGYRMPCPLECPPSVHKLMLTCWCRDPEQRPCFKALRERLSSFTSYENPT
compound,measurement,setting,value
Nc1cccc(-c2cc3c(Oc4cccc(O)c4)ncnc3[nH]2)c1,residual activity,ACVR1B (human),122%
same,residual activity,ADRBK1 (human),108%
same,residual activity,BRSK1 (human),83.1%
same,residual activity,CAMK1 (human),112%
same,residual activity,CAMKK2 (human),95.9%
same,residual activity,CDK1 CCNA2 (human),99.3%
same,residual activity,CDK5 CDK5R1 p25 (human),114%
same,residual activity,CLK1 (human),93%
same,residual activity,CSNK1E (human),92.9%
same,residual activity,DDR2 (human),29.3%
same,residual activity,DMPK (human),95.2%
same,residual activity,DYRK1A (human),103%
same,residual activity,DYRK3 (human),89.8%
same,residual activity,ERBB2 (human),76.6%
same,residual activity,FGFR1 (human),39.3%
same,residual activity,FRK (human),6.95%
same,residual activity,GSK3A (human),41.6%
same,residual activity,INSRR (human),96.3%
same,residual activity,KDR (human),6.7%
same,residual activity,LIMK1 (human),22.1%
same,residual activity,MAP3K2 (human),86.9%
same,residual activity,MAPK13 (human),104%
same,residual activity,MKNK2 (human),67.5%
same,residual activity,MYLK2 (human),29.9%
same,residual activity,NEK1 (human),92.3%
same,residual activity,NEK7 (human),99.4%
same,residual activity,PAK1 (human),88%
same,residual activity,PAK7 (human),86.9%
same,residual activity,PHKG1 (human),81.5%
same,residual activity,PHKG2 (human),109%
same,residual activity,PKN2 (human),72%
same,residual activity,PRKACA (human),92.3%
same,residual activity,PRKCB2 (human),97.5%
same,residual activity,PRKCE (human),97.4%
same,residual activity,PRKCH (human),90%
same,residual activity,PTK2 (human),88.4%
same,residual activity,PTK6 (human),11.1%
same,residual activity,RPS6KA2 KD1 KD2 (human),91.5%
same,residual activity,RPS6KA6 KD1 KD2 (human),95.4%
same,residual activity,SRPK1 (human),107%
same,residual activity,STK11 (human),12.4%
same,residual activity,STK17A (human),93.7%
O=C(Nc1cccc(Nc2nccc(Nc3cccc(C(F)(F)F)c3)n2)c1)C1CC1,residual activity,ACVR1B (human),110%
same,residual activity,ADRBK1 (human),84.7%
same,residual activity,BRSK1 (human),97.1%
same,residual activity,CAMK1 (human),95.5%
same,residual activity,CAMKK2 (human),99.5%
same,residual activity,CDK1 CCNA2 (human),95.9%
same,residual activity,CDK5 CDK5R1 p25 (human),99%
same,residual activity,CLK1 (human),102%
same,residual activity,CSNK1E (human),110%
same,residual activity,DDR2 (human),81.7%
same,residual activity,DMPK (human),101%
same,residual activity,DYRK1A (human),107%
same,residual activity,DYRK3 (human),101%
same,residual activity,ERBB2 (human),93.8%
same,residual activity,FGFR1 (human),99.6%
same,residual activity,FRK (human),92.2%
same,residual activity,GSK3A (human),95%
same,residual activity,INSRR (human),89.9%
same,residual activity,KDR (human),91.6%
same,residual activity,LIMK1 (human),45.1%
same,residual activity,MAP3K2 (human),91.6%
same,residual activity,MAPK13 (human),99.6%
same,residual activity,MKNK2 (human),91.3%
same,residual activity,MYLK2 (human),93.6%
same,residual activity,NEK1 (human),82.8%
same,residual activity,NEK7 (human),116%
same,residual activity,PAK1 (human),89.5%
same,residual activity,PAK7 (human),89.2%
same,residual activity,PHKG1 (human),98.3%
same,residual activity,PHKG2 (human),107%
same,residual activity,PKN2 (human),89.5%
same,residual activity,PRKACA (human),91.7%
same,residual activity,PRKCB2 (human),98%
same,residual activity,PRKCE (human),106%
same,residual activity,PRKCH (human),98.6%
same,residual activity,PTK2 (human),89.1%
same,residual activity,PTK6 (human),72.3%
same,residual activity,RPS6KA2 KD1 KD2 (human),101%
same,residual activity,RPS6KA6 KD1 KD2 (human),89.5%
same,residual activity,SRPK1 (human),104%
same,residual activity,STK11 (human),82.8%
same,residual activity,STK17A (human),97.6%
